# In US5585355A, “Method for increasing blood-ocular barrier permeability with permeabilizer peptides” (Alkermes, Inc., priority 1994, dated 1996):
# Values joined by “and” are separate entries in the source; they are usually repeats but may differ in a detail not shown here. Identical values can stand only once. Like-named read-outs stand apart in the source and are kept apart here.
# Tests used:
# blood-ocular barrier = details: for Uptake of [14C]-sucrose, % of plasma concentration (W/W) / KIN, unidirectional transport rate of [14C]-sucrose: A-7 1 μg/kg; for KIN, unidirectional transport rate of [14C]-sucrose: 3.0 min to 4.5 min
# Method: Adult Hartley guinea pigs of either sex (250-300 g) were used.
# Animals were anaesthetized with 6 mg/kg xylazine (Rompun®, Mobay Corp., Shawnee, Kans.) and 30 mg/kg ketamine (Vetacet®, Abeco Co., Inc., Fort Dodge, Iowa) before surgically exposing the neck vessels. […] The technique is briefly summarized here. A fine polyethylene catheter connected to the extracorporeal perfusion system by silicon tubings was inserted into the right common carotid artery. Immediately after the start of the perfusion, the contralateral carotid artery was ligated and both jugular veins cut to allow free drainage of the perfusate.
# All tubing was low gas permeable silicon, and all metal was medical grade stainless steel. The temperature and perfusion pressure were continuously recorded, and the acid-base status frequently monitored. Perfusion pressure was kept slightly above the animal's blood pressure to eliminate any possible ingress from the systemic circulation.
# Isotopically labeled [^14 C]-sucrose was introduced into the perfusion circuit after the 5 minute infusion at a rate of 0.4 to 0.6 μCi/ml/min, over periods ranging from 1.5 min to 4.5 min. In all experiments, the perfusion was terminated by severing the right common carotid artery and decapitating the animal.
# The eyes were enucleated and the lenses rapidly excised via a lateral approach 1.5 mm posteriorly to the limbus. The lenses were blotted on filter paper to remove any adhering aqueous humor and to avoid epithelial contamination by aqueous radioactivity. Corneas were dissected circumferentially about 0.5 mm anteriorly to the limbus. After removal of the anterior segment of the eye, the vitreous body was dissected from the retinal surface. Retinas were scooped from the lying epithelium. All tissues were blotted after dissection to minimize contamination by adjacent tissue layers and/or fluids. Samples of plasma, aqueous humor, lens, cornea, retina and posterior vitreous were treated with 2 ml Beckman Tissue Solubilizer (BTS)-450, and 16 ml of scintillant (Beckman Ready Organic, Fullerton, Calif.). Radioactivity was determined in a Beckman LS-7500 liquid scintillation spectrometer.
# (When data are expressed as percentages the ratios were multiplied by 100.) The following equations were used to calculate ratios:
# Caqueous or Cvitreous /Cplasma =(DPM/ml aqueous or vitreous)/(DPM/ml plasma)
# Clens or Ccornea or Cretina /Cplasma =(DPM/g lens or cornea or retina)/(DPM/ml plasma)
# Multiple-time uptake series were performed, and the unidirectional transport rate constant, KIN, and initial volume of tracer distribution, VI, were calculated using the following equations where T is the perfusion time:
# KIN (plasma-aqueous or vitreous)=[Caqueous or vitreous /Cplasma ]T+VI (aqueous or vitreous/plasma)
# KIN (plasma-lens, cornea or retina)=[Clens, cornea or retina /Cplasma ]T+VI (lens cornea or retina/plasma)
# The respective KIN and VI values were graphically estimated by linear regression analysis as a slope and ordinate intercept of the line corresponding to the best linear fit to experimental data points for the time period when there was no significant departure from linearity in studied compartments.
# Results are presented as means±SE.
# [1] = Effect of A-7 on physiological functions; format: in vivo, guinea pig; details: for Blood Pressure / Body Weight / Heart Rate / Respirations/Minute: within first minute of infusion
substance,measurement,setting,value
Arginine-Proline-Hydroxyproline-Glycine-Thienylalanine-Serine-Proline-4-Me-Tyrosine-(CH2 NH)Arginine [A-7],"Uptake of [14C]-sucrose, % of plasma concentration (W/W)","blood-ocular barrier; aqueous, 1.5 min after sucrose added",0.19 ± 0.01 % of Plasma Concentration (W/W
same,"Uptake of [14C]-sucrose, % of plasma concentration (W/W)","blood-ocular barrier; aqueous, 3.0 min after sucrose added",0.41 ± 0.18 % of Plasma Concentration (W/W
same,"KIN, unidirectional transport rate of [14C]-sucrose",blood-ocular barrier; aqueous,9.13 ± 3.66 µL/min/g
same,"Uptake of [14C]-sucrose, % of plasma concentration (W/W)","blood-ocular barrier; aqueous, 4.5 min after sucrose added",1.79 ± 0.68 % of Plasma Concentration (W/W
same,"Uptake of [14C]-sucrose, % of plasma concentration (W/W)","blood-ocular barrier; cornea, 1.5 min after sucrose added",0.48 ± 0.19 % of Plasma Concentration (W/W
same,"Uptake of [14C]-sucrose, % of plasma concentration (W/W)","blood-ocular barrier; cornea, 3.0 min after sucrose added",1.01 ± 0.23 % of Plasma Concentration (W/W
same,"KIN, unidirectional transport rate of [14C]-sucrose",blood-ocular barrier; cornea,16.20 ± 3.42 µL/min/g
same,"Uptake of [14C]-sucrose, % of plasma concentration (W/W)","blood-ocular barrier; cornea, 4.5 min after sucrose added, an outlier of 0.5% not included",3.44 ± 1.40 % of Plasma Concentration (W/W
same,"KIN for sucrose, times higher in the presence of A-7",blood-ocular barrier; lens,6.5 times
same,"Uptake of [14C]-sucrose, % of plasma concentration (W/W)","blood-ocular barrier; lens, 1.5 min after sucrose added",0.03 ± 0.02 % of Plasma Concentration (W/W
same,"Uptake of [14C]-sucrose, % of plasma concentration (W/W)","blood-ocular barrier; lens, 3.0 min after sucrose added",0.05 ± 0.01 % of Plasma Concentration (W/W
same,"KIN, unidirectional transport rate of [14C]-sucrose",blood-ocular barrier; lens,0.130 ± 0.015 µL/min/g
same,"Uptake of [14C]-sucrose, % of plasma concentration (W/W)","blood-ocular barrier; lens, 4.5 min after sucrose added",0.07 ± 0.01 % of Plasma Concentration (W/W
same,"KIN for sucrose, times higher in the presence of A-7",blood-ocular barrier; retina,6.7 times
same,"Uptake of [14C]-sucrose, % of plasma concentration (W/W)","blood-ocular barrier; retina, 1.5 min after sucrose added, 5 min arterial infusion",0.95 ± 0.30 % of Plasma Concentration (W/W
same,"Uptake of [14C]-sucrose, % of plasma concentration (W/W)","blood-ocular barrier; retina, 3.0 min after sucrose added, 5 min arterial infusion",1.76 ± 0.50 % of Plasma Concentration (W/W
same,"KIN, unidirectional transport rate of [14C]-sucrose",blood-ocular barrier; retina,4.27 ± 0.9 µL/min/g
same,"Uptake of [14C]-sucrose, % of plasma concentration (W/W)","blood-ocular barrier; retina, 4.5 min after sucrose added, 5 min arterial infusion",2.26 ± 0.56 % of Plasma Concentration (W/W
same,"Uptake of [14C]-sucrose, % of plasma concentration (W/W)","blood-ocular barrier; vitreous, 1.5 min after sucrose added",0.03 ± 0.018 % of Plasma Concentration (W/W
same,"Uptake of [14C]-sucrose, % of plasma concentration (W/W)","blood-ocular barrier; vitreous, 3.0 min after sucrose added",0.05 ± 0.01 % of Plasma Concentration (W/W
same,"KIN, unidirectional transport rate of [14C]-sucrose",blood-ocular barrier; vitreous,0.84 µL/min/g and 0.84 ± 0.25 µL/min/g
same,"Uptake of [14C]-sucrose, % of plasma concentration (W/W)","blood-ocular barrier; vitreous, 4.5 min after sucrose added",0.18 ± 0.05 % of Plasma Concentration (W/W
same,Effect on sucrose uptake by vitreous,"blood-ocular barrier; vitreous, time points earlier than 4.5 minutes of VEP",did not affect
same,"Changes in body weight, respiration rate, blood pressure and heart rate",[1]; A-7 1 μg/kg,no significant changes
same,Blood Pressure,[1]; A-7 1 μg/kg body weight,75 mm Hg
same,Body Weight,[1]; A-7 1 μg/kg body weight,283 g
same,Heart Rate,[1]; A-7 1 μg/kg body weight,170 Beats Per Minute
same,Respirations/Minute,[1]; A-7 1 μg/kg body weight,26
same,Blood Pressure,[1]; A-7 3 μg/kg body weight,90 mm Hg
same,Body Weight,[1]; A-7 3 μg/kg body weight,283 g
same,Heart Rate,[1]; A-7 3 μg/kg body weight,200 Beats Per Minute
same,Respirations/Minute,[1]; A-7 3 μg/kg body weight,44
same,Blood Pressure,[1]; A-7 10 μg/kg body weight,100 mm Hg
same,Body Weight,[1]; A-7 10 μg/kg body weight,285 g
same,Heart Rate,[1]; A-7 10 μg/kg body weight,Unmeasur-
same,Respirations/Minute,[1]; A-7 10 μg/kg body weight,58
